Laboratory results as given in PMC3044687, “The C-Terminal Domain of the Arabinosyltransferase Mycobacterium tuberculosis EmbC Is a Lectin-Like Carbohydrate Binding Module” (PLoS Pathogens, 2011).

Experiments:
[1] = target: EmbC^CT (C-terminal domain of M. tuberculosis EmbC, residues 719–1094) (Mycobacterium tuberculosis, UniProt P9WNL5); assay: Solution binding assay by intrinsic tryptophan fluorescence, wild-type EmbC^CT; conditions: wild-type EmbC^CT 20 µM, 50 mM KH2PO4 pH 7.9, 300 mM NaCl; single site saturation fit
Sequence of EmbC^CT (C-terminal domain of M. tuberculosis EmbC, residues 719–1094) (P9WNL5 719-1094 limits assumed): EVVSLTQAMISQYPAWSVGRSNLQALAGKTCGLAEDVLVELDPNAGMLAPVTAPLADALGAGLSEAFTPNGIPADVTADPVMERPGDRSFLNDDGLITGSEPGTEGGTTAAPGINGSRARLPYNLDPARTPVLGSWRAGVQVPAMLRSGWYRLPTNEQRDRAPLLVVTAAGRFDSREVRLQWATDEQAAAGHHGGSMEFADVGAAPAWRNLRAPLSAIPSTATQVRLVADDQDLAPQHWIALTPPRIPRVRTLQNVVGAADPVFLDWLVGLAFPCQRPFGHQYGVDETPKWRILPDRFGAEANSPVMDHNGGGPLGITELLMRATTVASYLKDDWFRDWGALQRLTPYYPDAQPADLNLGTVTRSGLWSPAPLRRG
Method: Intrinsic tryptophan fluorescence (ITF) experiments were carried out using a PTI QuantaMaster 40 spectrofluorimeter, recording data with the FeliX32 software package (PTI, Birmingham, New Jersey, USA). The excitation wavelength was set to 294 nm and the fluorescence emission (Femission) was recorded between 300–400 nm for each ligand aliquot added to a 200 µl solution containing 20 µM EmbC^CT in 50 mM KH2PO4 (pH 7.9), 300 mM NaCl. […] The change in fluorescence emission (ΔFemission) was calculated by subtracting Femission (recorded 2 min after each ligand addition) from Femission^max, and the data was then plotted against ligand concentration, [L] (3 independent experiments). A plot of ΔFemission at λ = 338 nm vs. [L] was fitted to the saturation binding equation using GraphPad Prism software: [drawing 1]

[2] = test system: Araf transferase (isolated mycobacterial membranes); conditions: incubated with [14C]-labelled Araf-donor DPA and isolated mycobacterial membranes; cited from earlier work

Work on CCCCCCCCO[C@H]1O[C@H](CO[C@H]2O[C@H](CO[C@H]3O[C@H](CO[C@H]4O[C@H](CO[C@H]5O[C@H](CO)[C@@H](O)[C@@H]5O)[C@@H](O)[C@@H]4O)[C@@H](O)[C@@H]3O)[C@@H](O)[C@@H]2O)[C@@H](O)[C@@H]1O [Ara(1→5)4Ara-O-C8, [α-D-Araf-(1→5)]4-α-D-Araf-O-(CH2)7CH3] yielded an Fmax [1] of 0.157.
CO[C@H]1O[C@H](CO[C@H]2O[C@H](CO)[C@@H](O)[C@@H]2O)[C@@H](O)[C@@H]1O [Ara(1→5)Ara-O-C1, α-D-Araf-(1→5)-α-D-Araf-O-CH3] showed an Fmax [1] of 0.26 and a Kd [1] of 11 µM.
In the case of CCCCCCCCO[C@H]1O[C@H](CO[C@H]2O[C@H](CO)[C@@H](O)[C@@H]2O)[C@@H](O)[C@@H]1O [Ara(1→5)Ara-O-C8, α-D-Araf-(1→5)-α-D-Araf-O-(CH2)7CH3], the Fmax [1] is listed as 0.22 and the “acceptor activity (in words)” value [2] is listed as “potent acceptor mimics”.
With CCCCCCCCO[C@H]1O[C@H](CO[C@H]2O[C@H](CO[C@H]3O[C@H](CO)[C@@H](O)[C@@H]3O)[C@@H](O)[C@@H]2O)[C@@H](O)[C@@H]1O [Ara(1→5)2Ara-O-C8, [α-D-Araf-(1→5)]2-α-D-Araf-O-(CH2)7CH3] the Fmax [1] was 0.105 and the Kd [1] was 25.3 µM.
